Results on eleven molecules are retold here after PubChem BioAssay (NCI).

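Five compound concentrations were applied to cells in 96-well plates for 48 hours; endpoints were derived by simple linear interpolation of the resulting dose-response curve. At the GI50, growth is halved. The concentration for full growth arrest is given as TGI.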

Among the test systems are UACC-62 melanoma; LOX IMVI melanoma; BT-549 breast; SF-539 CNS; A549 NSCLC; HCC-2998 colon; NCI-H226 lung; CCRF-CEM leukemia.
Holding throughout (test): NCI anticancer screen, dose series, 48 h

On to `CCCCCNC(=O)[C@@H]1CCCN2C(=O)CC[C@H](NC(=O)[C@H](Cc3ccc(OP(=O)(O)O)cc3)NC(C)=O)C(=O)N12`, for which the GI50 with UACC-62 melanoma, in the test on LOX IMVI melanoma, in the test on BT-549 breast, in the test with SF-539 CNS, in the test with A549 NSCLC and in the test with HCC-2998 colon was more than 25 µM throughout. In addition, the GI50 in the test on NCI-H226 lung and with CCRF-CEM leukemia was more than 25 µM in each case. In addition, the TGI with UACC-62 melanoma, in the test on LOX IMVI melanoma, with BT-549 breast, in the test on SF-539 CNS, with A549 NSCLC and in the test with HCC-2998 colon was more than 25 µM throughout. The TGI with NCI-H226 lung and in the test with CCRF-CEM leukemia was more than 25 µM in each case.
Turning to `C[C@@H]1O[C@@H](O[C@@H]2[C@@H](O)[C@H](OCCc3ccc(O)c(O)c3)O[C@H](COC(=O)/C=C/c3ccc(O)c(O)c3)[C@H]2O)[C@H](O)[C@H](O)[C@H]1O`, the GI50 in the test with UACC-62 melanoma is more than 100 µM; with LOX IMVI melanoma, 18.3 µM; in the test on BT-549 breast, 12.8 µM; in the test with SF-539 CNS, more than 100 µM; in the test with A549 NSCLC, more than 100 µM; with NCI-H226 lung, more than 100 µM. The TGI in the test with UACC-62 melanoma is more than 100 µM; in the test on LOX IMVI melanoma, 34.4 µM; with BT-549 breast, 30 µM; with SF-539 CNS, more than 100 µM; in the test on A549 NSCLC it was more than 100 µM; with NCI-H226 lung, more than 100 µM.
As for `O=C(c1cc(F)c(Cl)cc1Cl)N1N=C(c2ccccc2)CC1(O)c1ccccc1` (stereo not given), the GI50 was 11.1 µM in the test on UACC-62 melanoma; 17.1 µM with LOX IMVI melanoma; 17.7 µM in the test with BT-549 breast; 16.5 µM in the test with SF-539 CNS; 27.8 µM in the test with A549 NSCLC; 16.9 µM with HCC-2998 colon. Besides, in the test with NCI-H226 lung, the GI50 is 17.3 µM. The TGI was 23.9 µM with UACC-62 melanoma; 30.8 µM in the test with LOX IMVI melanoma; 40.5 µM in the test with BT-549 breast; 30.2 µM in the test with SF-539 CNS; more than 100 µM in the test on A549 NSCLC; 37.8 µM in the test with HCC-2998 colon. The TGI in the test on NCI-H226 lung came to 36.5 µM.
`N#CC1=C(N)N=C(N2CCCCC2)C(C#N)C12Nc1ccccc1S2` (stereo not given): the GI50 with UACC-62 melanoma was 16.9 µM; in the test with LOX IMVI melanoma, 20.7 µM; in the test with BT-549 breast, 33.3 µM; with SF-539 CNS it was 30.7 µM; with A549 NSCLC it was 29.5 µM. Moreover, the TGI is 49.1 µM with UACC-62 melanoma; 51.8 µM in the test with LOX IMVI melanoma; more than 100 µM in the test on BT-549 breast; 75.4 µM in the test on SF-539 CNS; more than 100 µM with A549 NSCLC.
Consider `COC(=O)NC/C=C\c1nc(CC/C=C\C(=O)OC2CC3CC(=O)O[C@H](/C=C/CC(C)C)C[C@H]4CCC(C)C(C[C@H](OC)CC(C2)O3)O4)co1` (stereo not given in full), for which the GI50 in the test with UACC-62 melanoma was 0.0635 µM; in the test with BT-549 breast, 0.016 µM; in the test on SF-539 CNS, less than 0.01 µM; with A549 NSCLC, less than 0.01 µM; in the test with NCI-H226 lung it was 12.9 µM. In addition, the TGI in the test with UACC-62 melanoma is more than 100 µM; in the test with BT-549 breast it was 2.95 µM; with SF-539 CNS, 0.114 µM; with A549 NSCLC it was more than 100 µM; in the test on NCI-H226 lung, more than 100 µM.
In the case of `c1nc2cscc2c2cscc12`, the TGI with UACC-62 melanoma, in the test with LOX IMVI melanoma, in the test on SF-539 CNS, in the test with A549 NSCLC, in the test with HCC-2998 colon and in the test on NCI-H226 lung was more than 100 µM in each case. The molecule further had a TGI with CCRF-CEM leukemia of more than 100 µM.
For `Fc1ccc(Oc2nccc(-c3c(-c4ccc(F)cc4)ncn3C3CCNCC3)n2)cc1`, the GI50 is more than 20.8 µM with UACC-62 melanoma; more than 25 µM in the test with LOX IMVI melanoma; more than 25 µM in the test with BT-549 breast; more than 25 µM with SF-539 CNS; more than 25 µM in the test on A549 NSCLC; more than 25 µM in the test on HCC-2998 colon. The TGI in the test on UACC-62 melanoma, with LOX IMVI melanoma, in the test on BT-549 breast, in the test with SF-539 CNS, with A549 NSCLC and with HCC-2998 colon was more than 25 µM in each case.
`COc1ccc(/C=C2\CN(C(=O)C(Cl)Cl)C/C(=C\c3ccc(OC)c(OC)c3)C2=O)cc1OC`: the GI50 with UACC-62 melanoma is 0.185 µM; with LOX IMVI melanoma it was 0.0282 µM; with BT-549 breast it was 0.535 µM; with A549 NSCLC, 1.28 µM; in the test on HCC-2998 colon, 0.39 µM; in the test on NCI-H226 lung, 0.43 µM. The GI50 with CCRF-CEM leukemia was 0.0341 µM. Besides, the TGI with UACC-62 melanoma is 0.549 µM; with LOX IMVI melanoma, 0.0965 µM; in the test with BT-549 breast, 2.98 µM; in the test with A549 NSCLC, more than 100 µM; in the test with HCC-2998 colon, 1.44 µM; in the test on NCI-H226 lung, 1.72 µM. Further, in the test with CCRF-CEM leukemia, the TGI was more than 100 µM.
As for `N#CC1=C(N)OC2=C(COc3ccc(F)cc32)C1c1ccc(Cl)cc1` (stereo not given), the GI50 in the test with UACC-62 melanoma was 18.5 µM; with LOX IMVI melanoma, 35.1 µM; in the test on BT-549 breast, 27.3 µM; with SF-539 CNS, 29.5 µM; with A549 NSCLC, 93.4 µM; in the test with HCC-2998 colon, 25.6 µM. Moreover, the GI50 with CCRF-CEM leukemia was 55.5 µM. Further, the TGI with UACC-62 melanoma was 42.6 µM; in the test with LOX IMVI melanoma, more than 100 µM; with BT-549 breast it was 73.5 µM; in the test with SF-539 CNS, 81.6 µM; with A549 NSCLC, more than 100 µM; in the test with HCC-2998 colon, 60.2 µM. For the same molecule, the TGI with CCRF-CEM leukemia is more than 100 µM.
On to `CN(C)NC1=NS(=O)(=O)c2cc3c(cc2S1)N(N(C)C)C(=O)c1cc2c(cc1N(N(C)C)C3=O)SC(NN(C)C)=NS2(=O)=O`, for which the TGI in the test on LOX IMVI melanoma, with BT-549 breast, in the test with SF-539 CNS, in the test with A549 NSCLC, with HCC-2998 colon and with NCI-H226 lung was more than 10 µM in each case. For the same molecule, the TGI in the test on CCRF-CEM leukemia is more than 10 µM.
In the case of `O=C(Nc1ccc(-n2cc(-c3ccncc3)c(-c3ccc(Cl)c(O)c3)n2)cc1)Nc1cc(C(F)(F)F)cc(C(F)(F)F)c1`, the GI50 is 2.23 µM in the test with UACC-62 melanoma; 1.63 µM with LOX IMVI melanoma; 1.49 µM in the test on BT-549 breast; 1.94 µM in the test on SF-539 CNS; 1.93 µM in the test on A549 NSCLC; 1.79 µM with HCC-2998 colon. The GI50 in the test with NCI-H226 lung was 2.45 µM. Moreover, the TGI in the test with UACC-62 melanoma turned out to be 5.37 µM; in the test with LOX IMVI melanoma, 3.02 µM; in the test on BT-549 breast, 3.22 µM; in the test on SF-539 CNS it was 6.4 µM; in the test with A549 NSCLC it was 4.3 µM; in the test with HCC-2998 colon, 3.37 µM. In the test with NCI-H226 lung, this molecule gave a TGI of 10.6 µM.
